The source of these data is PubChem BioAssay AID1745844 (Carcinogenic Potency Database (CPDB), 2022).

The test system of this data set is rodent lifetime carcinogenesis bioassay, tumor incidence TD50. Briefly: carcinogenic potency in animals, long-term in vivo studies, CPDB compilation (AID 1745844).

Calls of active or inactive are those of the source. How the calls were made is not given here. Numbered stars: 1 amine (or outer) side, 2 acyl side, 3 side chain; on linkers, the order of the positions; unused ones are H or OH. Bridge positions count the residues as written; N and C are the ends. Square brackets hold non-standard residues; d marks the D form. Peptide text beside a SMILES is read from it. I, II: the chains in the order shown. Actinocin(9to1) = Cc1c2oc3c(C)ccc(C(=O)[*:1])c3nc-2c(C(=O)[*:2])c(N)c1=O; NMeV = CN[C@H](C(=O)O)C(C)C; Sar = CNCC(=O)O

For orientation: TD50 means the 50% point of the dose-response relation for the toxic effect studied.

Take `Cc1ccc(N=Nc2c(O)ccc3ccccc23)c([N+](=O)[O-])c1`: the TD50 by setting is: (mouse, strain B6C3F1, females, in feed, site: any site (literature study), lesion: several types, types named in the paper, dosed 103 weeks, study length 104 weeks) 13800 mg/kg/day; (mouse, strain B6C3F1, females, in feed, site: liver, lesion: hepatocellular adenoma + hepatocellular carcinoma + neoplastic nodule, dosed 103 weeks, study length 104 weeks) 204000 mg/kg/day; (mouse, strain B6C3F1, females, in feed, site: lung, lesion: alveolar/bronchiolar adenoma + alveolar/bronchiolar carcinoma, dosed 103 weeks, study length 104 weeks) 252000 mg/kg/day; (mouse, strain B6C3F1, females, in feed, site: lymph node, lesion: axillary histiocytic sarcoma + deep cervical, histiocytic sarcoma + iliac histiocytic sarcoma + inguinal histiocytic sarcoma + r, dosed 103 weeks, study length 104 weeks) 104000 mg/kg/day (inactive); (mouse, strain B6C3F1, males, in feed, site: all sites, lesion: malignant lymphoma, histiocytic type + malignant lymphoma, mixed type, dosed 103 weeks, study length 104 weeks) 22700 mg/kg/day; (mouse, strain B6C3F1, males, in feed, site: any site (literature study), lesion: several types, types named in the paper, dosed 103 weeks, study length 104 weeks) 9420 mg/kg/day. Besides, the TD50 reads like this: (mouse, strain B6C3F1, males, in feed, site: kidney cortex + thyroid gland, lesion: adenoma + follicular-cell adenoma, dosed 103 weeks, study length 104 weeks) 19500 mg/kg/day; (mouse, strain B6C3F1, males, in feed, site: kidney cortex, lesion: adenoma, dosed 103 weeks, study length 104 weeks) 35500 mg/kg/day; (mouse, strain B6C3F1, males, in feed, site: liver, lesion: hepatocellular adenoma + hepatocellular carcinoma + neoplastic nodule, dosed 103 weeks, study length 104 weeks) 17900 mg/kg/day; (mouse, strain B6C3F1, males, in feed, site: lung, lesion: alveolar/bronchiolar adenoma + alveolar/bronchiolar carcinoma, dosed 103 weeks, study length 104 weeks) 36900 mg/kg/day; (mouse, strain B6C3F1, males, in feed, site: thyroid gland, lesion: follicular-cell adenoma, dosed 103 weeks, study length 104 weeks) 38300 mg/kg/day; (rat, strain Fischer 344, females, in feed, site: liver, lesion: hepatocellular adenoma + hepatocellular carcinoma + neoplastic nodule, dosed 103 weeks, study length 104 weeks) 5240 mg/kg/day. Besides, the TD50 is 5240 mg/kg/day (rat, strain Fischer 344, females, in feed, site: liver, lesion: hepatocellular adenoma, dosed 103 weeks, study length 104 weeks); 9010 mg/kg/day (rat, strain Fischer 344, males, in feed, site: Zymbal's gland, lesion: carcinoma, dosed 103 weeks, study length 104 weeks); 674 mg/kg/day (rat, strain Fischer 344, males, in feed, site: adrenal medulla, lesion: pheochromocytoma, benign, dosed 103 weeks, study length 104 weeks); 661 mg/kg/day (rat, strain Fischer 344, males, in feed, site: adrenal medulla, lesion: pheochromocytoma, malignant + pheochromocytoma, benign, dosed 103 weeks, study length 104 weeks); 906 mg/kg/day (rat, strain Fischer 344, males, in feed, site: any site (literature study), lesion: several types, types named in the paper, dosed 103 weeks, study length 104 weeks); 5170 mg/kg/day (rat, strain Fischer 344, males, in feed, site: liver, lesion: hepatocellular adenoma + hepatocellular carcinoma + neoplastic nodule, dosed 103 weeks, study length 104 weeks). In addition, the TD50 runs as follows: (rat, strain Fischer 344, males, in feed, site: skin, lesion: carcinoma + squamous-cell papilloma, dosed 103 weeks, study length 104 weeks) 3660 mg/kg/day; (rat, strain Fischer 344, males, in feed, site: skin, lesion: squamous-cell papilloma, dosed 103 weeks, study length 104 weeks) 2540 mg/kg/day.

For the compound `CC(=O)Nc1ccc2c(c1)C(=O)c1ccccc1-2`, the TD50 is 32 mg/kg/day (rat, strain Buffalo, females, in feed, site: ear duct, lesion: squamous-cell carcinoma, dosed 86 weeks, study length 86 weeks); 102 mg/kg/day (rat, strain Buffalo, females, in feed, site: liver, lesion: hepatoma, dosed 86 weeks, study length 86 weeks); 6.17 mg/kg/day (rat, strain Buffalo, females, in feed, site: mammary gland, lesion: adenocarcinoma, dosed 86 weeks, study length 86 weeks).

Regarding `Oc1cc2c(cc1O)[C@@H]1c3ccc(O)c(O)c3OC[C@]1(O)C2`, the TD50 is, setting by setting: (rat, strain Wistar, both sexes, in feed, site: abdomen, lesion: malignant lymphoma, dosed 78 weeks, study length 78 weeks) 2410 mg/kg/day; (rat, strain Wistar, both sexes, in feed, site: forehead, lesion: malignant lymphoma, dosed 78 weeks, study length 78 weeks) 2410 mg/kg/day; (rat, strain Wistar, both sexes, in feed, site: several sites, sites named in the paper, lesion: malignant lymphoma, dosed 78 weeks, study length 78 weeks) 1000 mg/kg/day.

In the case of `Cc1c2oc3c(C)ccc(C(=O)N[C@@H]4C(=O)N[C@H](C(C)C)C(=O)N5CCC[C@H]5C(=O)N(C)CC(=O)N(C)[C@@H](C(C)C)C(=O)O[C@@H]4C)c3nc-2c(C(=O)N[C@@H]2C(=O)N[C@H](C(C)C)C(=O)N3CCC[C@H]3C(=O)N(C)CC(=O)N(C)[C@@H](C(C)C)C(=O)O[C@@H]2C)c(N)c1=O` (I: T[dV]P[Sar][NMeV] / II: T[dV]P[Sar][NMeV]; ester I:1-I:C, II:1-II:C; linker I:N-II:N via Actinocin(9to1)), the TD50 reads like this: (rat, strain Charles River CD (Sprague-Dawley), females, i.p., site: any site (literature study), lesion: malignant tumor, dosed 26 weeks, study length 78 weeks) 0.00121 mg/kg/day; (rat, strain Charles River CD (Sprague-Dawley), females, i.p., site: any site (literature study), lesion: several types, types named in the paper, dosed 26 weeks, study length 78 weeks) 0.00145 mg/kg/day; (rat, strain Charles River CD (Sprague-Dawley), females, i.p., site: lung, lesion: adenoma, dosed 26 weeks, study length 78 weeks) 0.0501 mg/kg/day; (rat, strain Charles River CD (Sprague-Dawley), females, i.p., site: peritoneum, lesion: sarcoma, dosed 26 weeks, study length 78 weeks) 0.00199 mg/kg/day; (rat, strain Charles River CD (Sprague-Dawley), males, i.p., site: all sites, lesion: lymphosarcoma, dosed 26 weeks, study length 78 weeks) 0.0201 mg/kg/day; (rat, strain Charles River CD (Sprague-Dawley), males, i.p., site: all sites, lesion: plasmacytoma, dosed 26 weeks, study length 78 weeks) 0.0201 mg/kg/day. Also, the TD50 reads like this: (rat, strain Charles River CD (Sprague-Dawley), males, i.p., site: any site (literature study), lesion: malignant tumor, dosed 26 weeks, study length 78 weeks) 0.000708 mg/kg/day; (rat, strain Charles River CD (Sprague-Dawley), males, i.p., site: any site (literature study), lesion: several types, types named in the paper, dosed 26 weeks, study length 78 weeks) 0.000501 mg/kg/day; (rat, strain Charles River CD (Sprague-Dawley), males, i.p., site: liver, lesion: hemangioma, dosed 26 weeks, study length 78 weeks) 0.0407 mg/kg/day; (rat, strain Charles River CD (Sprague-Dawley), males, i.p., site: peritoneum, lesion: sarcoma, dosed 26 weeks, study length 78 weeks) 0.000769 mg/kg/day.

Consider `[O-]/[N+](=N\O)c1ccccc1`, for which the TD50 is 1270 mg/kg/day (mouse, strain B6C3F1, females, in feed, site: Harderian gland, lesion: adenoma, NOS, dosed 78 weeks, study length 95 weeks); 3930 mg/kg/day (mouse, strain B6C3F1, females, in feed, site: Zymbal's gland, lesion: sebaceous adenocarcinoma + squamous-cell carcinoma, dosed 78 weeks, study length 95 weeks); 253 mg/kg/day (mouse, strain B6C3F1, females, in feed, site: all sites + Harderian gland + liver + Zymbal's gland, lesion: hemangioma + hemangiosarcoma + adenoma, NOS + hepatocellular adenoma + hepatocellular carcinoma + sebaceous adenocarcinoma + squamou, dosed 78 weeks, study length 95 weeks); 419 mg/kg/day (mouse, strain B6C3F1, females, in feed, site: all sites, lesion: hemangioma + hemangiosarcoma, dosed 78 weeks, study length 95 weeks); 1330 mg/kg/day (mouse, strain B6C3F1, females, in feed, site: all sites, lesion: hemangiosarcoma, dosed 78 weeks, study length 95 weeks); 211 mg/kg/day (mouse, strain B6C3F1, females, in feed, site: any site (literature study), lesion: several types, types named in the paper, dosed 78 weeks, study length 95 weeks). Also, the TD50 runs as follows: (mouse, strain B6C3F1, females, in feed, site: liver, lesion: hepatocellular adenoma + hepatocellular carcinoma + neoplastic nodule, dosed 78 weeks, study length 95 weeks) 413 mg/kg/day; (mouse, strain B6C3F1, females, in feed, site: liver, lesion: hepatocellular adenoma + hepatocellular carcinoma, dosed 78 weeks, study length 95 weeks) 413 mg/kg/day; (mouse, strain B6C3F1, females, in feed, site: liver, lesion: hepatocellular carcinoma, dosed 78 weeks, study length 95 weeks) 564 mg/kg/day; (mouse, strain B6C3F1, females, in feed, site: lung, lesion: alveolar/bronchiolar adenoma + alveolar/bronchiolar carcinoma, dosed 78 weeks, study length 95 weeks) 798 mg/kg/day; (mouse, strain B6C3F1, males, in feed, site: Harderian gland, lesion: adenoma, NOS, dosed 78 weeks, study length 95 weeks) 1040 mg/kg/day; (mouse, strain B6C3F1, males, in feed, site: all sites, lesion: hemangiosarcoma, dosed 78 weeks, study length 95 weeks) 1000 mg/kg/day. In addition, the TD50 was 252 mg/kg/day (mouse, strain B6C3F1, males, in feed, site: any site (literature study), lesion: several types, types named in the paper, dosed 78 weeks, study length 95 weeks); 5450 mg/kg/day (mouse, strain B6C3F1, males, in feed, site: liver, lesion: hepatocellular adenoma + hepatocellular carcinoma + neoplastic nodule, dosed 78 weeks, study length 95 weeks); 2390 mg/kg/day (mouse, strain B6C3F1, males, in feed, site: lung, lesion: alveolar/bronchiolar adenoma + alveolar/bronchiolar carcinoma, dosed 78 weeks, study length 95 weeks); 171 mg/kg/day (rat, strain Fischer 344, females, in feed, site: Zymbal's gland, lesion: ceruminous carcinoma + squamous-cell carcinoma, dosed 78 weeks, study length 106 weeks); 14.1 mg/kg/day (rat, strain Fischer 344, females, in feed, site: all sites + liver + stomach + Zymbal's gland, lesion: hemangiosarcoma + hepatocellular carcinoma + neoplastic nodule + squamous-cell carcinoma + squamous-cell papilloma + ceruminous ca, dosed 78 weeks, study length 106 weeks); 17.4 mg/kg/day (rat, strain Fischer 344, females, in feed, site: all sites, lesion: hemangiosarcoma, dosed 78 weeks, study length 106 weeks). Further, the TD50 reads like this: (rat, strain Fischer 344, females, in feed, site: any site (literature study), lesion: several types, types named in the paper, dosed 78 weeks, study length 106 weeks) 11.2 mg/kg/day; (rat, strain Fischer 344, females, in feed, site: liver, lesion: hepatocellular adenoma + hepatocellular carcinoma + neoplastic nodule, dosed 78 weeks, study length 106 weeks) 17.7 mg/kg/day; (rat, strain Fischer 344, females, in feed, site: liver, lesion: hepatocellular carcinoma + neoplastic nodule, dosed 78 weeks, study length 106 weeks) 17.7 mg/kg/day; (rat, strain Fischer 344, females, in feed, site: liver, lesion: hepatocellular carcinoma, dosed 78 weeks, study length 106 weeks) 20.1 mg/kg/day; (rat, strain Fischer 344, females, in feed, site: stomach, lesion: squamous-cell carcinoma + squamous-cell papilloma, dosed 78 weeks, study length 106 weeks) 27.8 mg/kg/day; (rat, strain Fischer 344, females, in feed, site: stomach, lesion: squamous-cell carcinoma, dosed 78 weeks, study length 106 weeks) 31.3 mg/kg/day. In addition, the TD50 is, setting by setting: (rat, strain Fischer 344, males, in feed, site: all sites + liver + stomach, lesion: hemangiosarcoma + hepatocellular carcinoma + neoplastic nodule + squamous-cell carcinoma + squamous-cell papilloma, dosed 78 weeks, study length 105 weeks) 5.33 mg/kg/day; (rat, strain Fischer 344, males, in feed, site: all sites, lesion: hemangiosarcoma, dosed 78 weeks, study length 105 weeks) 5.49 mg/kg/day; (rat, strain Fischer 344, males, in feed, site: any site (literature study), lesion: several types, types named in the paper, dosed 78 weeks, study length 105 weeks) 8.85 mg/kg/day; (rat, strain Fischer 344, males, in feed, site: body cavities, lesion: mesothelioma, NOS + mesothelioma, dosed 78 weeks, study length 105 weeks) 139 mg/kg/day; (rat, strain Fischer 344, males, in feed, site: liver, lesion: hepatocellular adenoma + hepatocellular carcinoma + neoplastic nodule, dosed 78 weeks, study length 105 weeks) 9.28 mg/kg/day; (rat, strain Fischer 344, males, in feed, site: liver, lesion: hepatocellular carcinoma + neoplastic nodule, dosed 78 weeks, study length 105 weeks) 9.28 mg/kg/day. Moreover, the TD50 is 30.7 mg/kg/day (rat, strain Fischer 344, males, in feed, site: liver, lesion: hepatocellular carcinoma, dosed 78 weeks, study length 105 weeks); 6.28 mg/kg/day (rat, strain Fischer 344, males, in feed, site: stomach, lesion: squamous-cell carcinoma + squamous-cell papilloma, dosed 78 weeks, study length 105 weeks); 6.94 mg/kg/day (rat, strain Fischer 344, males, in feed, site: stomach, lesion: squamous-cell carcinoma, dosed 78 weeks, study length 105 weeks); 10.5 mg/kg/day (rat, strain Fischer 344, males, in feed, site: subcutaneous tissue, lesion: fibroma, dosed 78 weeks, study length 105 weeks).
